Measured values: US20180235993A1 (priority 2000, published 2018)
Like-named read-outs stand apart in the source and are kept apart here.

Key:
[1] = Cytotoxicity assay (sulforhodamine B, CC50), MDBK; format: cell-based; details: cattle; MDBK cells, 4 days incubation
Experimental: (§1) Cells were seeded at a rate of between 5×10^3 and 5×10^4/well into 96-well plates in growth medium overnight at 37° C. in a humidified CO2 (5%) atmosphere. New growth medium containing serial dilutions of the drugs was then added. After incubation for 4 days, cultures were fixed in 50% TCA and stained with sulforhodamineB. The optical density was read at 550 nm. The cytotoxic concentration was expressed as the concentration required to reduce the cell number by 50% (CC50).

BVDV (NADL strain) = experiment: Yield Reduction Assay; format: cell-based, Bovine Viral Diarrhea virus
Experimental: The assay was performed as described by Baginski, S. G.; Pevear, D. C.; Seipel, M.; Sun, S. C. C.; Benetatos, C. A.; Chunduru, S. K.; Rice, C. M. and M. S. Collett “Mechanism of action of a pestivirus antiviral compound” PNAS USA 2000, 97(14), 7981-7986, with minor modifications. Briefly, MDBK cells were seeded onto 24-well plates (2×10^5 cells per well) 24 hours before infection with BVDV (NADL strain) at a multiplicity of infection (MOI) of 0.1 PFU per cell. Serial dilutions of test compounds were added to cells in a final concentration of 0.5% DMSO in growth medium. Each dilution was tested in triplicate. After three days, cell cultures (cell monolayers and supernatants) were lysed by three freeze-thaw cycles, and virus yield was quantified by plaque assay. Briefly, MDBK cells were seeded onto 6-well plates (5×10^5 cells per well) 24 h before use. Cells were inoculated with 0.2 mL of test lysates for 1 hour, washed and overlaid with 0.5% agarose in growth medium. After 3 days, cell monolayers were fixed with 3.5% formaldehyde and stained with 1% crystal violet (w/v in 50% ethanol) to visualize plaques. FIG. 9 is a graphical illustration of the results from the Yield Reduction Assay. FIG. 8 is an image of BVDV yield reduction in the presence of increasing concentrations of β-D-2′-CH3-riboC.

[2] = test system: Human bone marrow cells (CFU-GM); experiment: Human bone marrow toxicity, CFU-GM clonogenic assay; format: cell-based; details: read-out: IC50 CFU-GM
Source text: (§2) Human bone marrow cells were collected from normal healthy volunteers and the mononuclear population was separated by Ficoll-Hypaque gradient centrifugation as described previously by Sommadossi J-P, Carlisle R. “Toxicity of 3′-azido-3′-deoxythymidine and 9-(1,3-dihydroxy-2-propoxymethyl)guanine for normal human hematopoietic progenitor cells in vitro” Antimicrobial Agents and Chemotherapy 1987; 31:452-454; and Sommadossi J-P, Schinazi R F, Chu C K, Xie M-Y. “Comparison of cytotoxicity of the (−)- and (+)-enantiomer of 2′,3′-dideoxy-3′-thiacytidine in normal human bone marrow progenitor cells” Biochemical Pharmacology 1992; 44:1921-1925. The culture assays for CFU-GM and BFU-E were performed using a bilayer soft agar or methylcellulose method. Drugs were diluted in tissue culture medium and filtered. After 14 to 18 days at 37° C. in a humidified atmosphere of 5% CO2 in air, colonies of greater than 50 cells were counted using an inverted microscope. The results in Table 4 are presented as the percent inhibition of colony formation in the presence of drug compared to solvent control cultures.

[3] = test system: Human bone marrow cells (BFU-E); experiment: Human bone marrow toxicity, BFU-E clonogenic assay; format: cell-based; details: human bone marrow colony formation, 14 to 18 days
Source text: as §2

in vitro [4] = experiment: in vitro
[5] = test system: PICO (Cosxackie B1 and Polio Sabin); experiment: organism not typed; format: cell-based; details: Vero, read-out: Comparative Antiviral Activity EC50 PICO
YFV-17D = experiment: microbe, parasite or virus in culture; format: cell-based, Yellow fever virus vaccine strain 17D
BVDV (strain NADL) = experiment: Cell Protection Assay (CPA); format: cell-based, Bovine Viral Diarrhea virus
Experimental: The assay was performed essentially as described by Baginski, S. G.; Pevear, D. C.; Seipel, M.; Sun, S. C. C.; Benetatos, C. A.; Chunduru, S. K.; Rice, C. M. and M. S. Collett “Mechanism of action of a pestivirus antiviral compound” PNAS USA 2000, 97(14), 7981-7986. MDBK cells (ATCC) were seeded onto 96-well culture plates (4,000 cells per well) 24 hours before use. After infection with BVDV (strain NADL, ATCC) at a multiplicity of infection (MOI) of 0.02 plaque forming units (PFU) per cell, serial dilutions of test compounds were added to both infected and uninfected cells in a final concentration of 0.5% DMSO in growth medium. Each dilution was tested in quadruplicate. Cell densities and virus inocula were adjusted to ensure continuous cell growth throughout the experiment and to achieve more than 90% virus-induced cell destruction in the untreated controls after four days post-infection. After four days, plates were fixed with 50% TCA and stained with sulforhodamine B. The optical density of the wells was read in a microplate reader at 550 nm. The 50% effective concentration (EC50) values were defined as the compound concentration that achieved 50% reduction of cytopathic effect of the virus. FIGS. 4 and 5 provide a graphical illustration of the methodology used to arrive at the 50% effective concentration (EC50) values for β-D-2′-CH3-riboG and ribavirin. FIG. 6 compares the results of the CPA for β-D-2′-CH3-riboG, β-D-2′-CH3-riboC, riboU, β-D-2′-CH3-riboA and ribavirin

in vitro [6] = details: cattle
[7] = Cytotoxicity assay (sulforhodamine B, CC50), Human Hepatoma; format: cell-based; details: human; for CC50 at 4 days: 4 days incubation; for EC50 at 4 days: Table 13
Experimental: as §1

BVDV = experiment: Plaque Reduction Assay; format: cell-based, Bovine Viral Diarrhea virus
Experimental: For each compound the effective concentration was determined in duplicate 24-well plates by plaque reduction assays. Cell monolayers were infected with 100 PFU/well of virus. Then, serial dilutions of test compounds in MEM supplemented with 2% inactivated serum and 0.75% of methyl cellulose were added to the monolayers. Cultures were further incubated at 37° C. for 3 days, then fixed with 50% ethanol and 0.8% Crystal Violet, washed and air-dried. FIG. 7 is a graphical illustration of the results from the Plaque Reduction Assay. FIG. 8 is an image of BVDV plaque formation in the presence of increasing concentrations of β-D-2′-CH3-riboU.

HIV-1 = experiment: Comparative antiviral activity (EC50), HIV-1; format: cell-based; details: Human immunodeficiency virus 1; Table 11
[8] = test system: Bovine Viral Diarrhea virus (BVDV); experiment: microbe, parasite or virus in culture; format: cell-based
VSV = experiment: microbe, parasite or virus in culture; format: cell-based; details: Vesicular stomatitis virus, read-out: Comparative Antiviral Activity EC50 VSV
HepG2 cells = experiment: Mitochondria toxicity assay (L-lactic acid assay); format: cell-based; details: 4 day drug exposure
Experimental: HepG2 cells were cultured in 12-well plates as described above and exposed to various concentrations of drugs as taught by Pan-Zhou X-R, Cui L, Zhou X-J, Sommadossi J-P, Darley-Usmer V M. “Differential effects of antiretroviral nucleoside analogs on mitochondrial function in HepG2 cells” Antimicrob Agents Chemother 2000; 44:496-503. Lactic acid levels in the culture medium after 4 day drug exposure was measured using a Boehringer lactic acid assay kit. Lactic acid levels were normalized by cell number as measured by hemocytometer count.

[9] = Bovine viral diarrhea virus isolates and strains, Table 13, BVDV
[10] = Yellow fever virus, read-out: Comparative Antiviral Activity EC50 YFV
[11] = Bovine viral diarrhea virus isolates and strains, 96 h, MDBK cells infected with BVDV, 50% reduction of cytopathic effect, four days, read-out: EC50
[12] = Bovine viral diarrhea virus isolates and strains, Table 13, BVDV, read-out: Cell Protection (EC50)
[13] = Huh7 cells (human hepatoma), Huh7 cells
[14] = Bovine viral diarrhea virus isolates and strains, Table 13, BVDV, 90% virus suppression, read-out: Plaque Reduction (EC90)
[15] = Bovine viral diarrhea virus isolates and strains, read-out: Comparative Antiviral Activity EC50 BVDV

In the case of `NC(=O)c1ncn([C@@H]2O[C@H](CO)[C@@H](O)[C@H]2O)n1` [Ribavirin, reference compound], the CC50 at 4 days [1] is reported as 5 µM, the “Yield Reduction 6 log10 reduction (μM)” value (BVDV (NADL strain)) is reported as “toxic” and the EC90 (BVDV (NADL strain); [9]) is reported as > 20 µM. The IC50 ([2]; Homo sapiens, CFU-GM) was ~5 µM, the IC50 ([3]; Bone marrow cell) was ~1 µM and the CC50 (in vitro [4]; African green monkey) was 11 µM. For the same compound, the CC50 (in vitro [4]; hamster) was 50 µM, the EC50 [5] was > 30 µM and the EC50 (YFV-17D; [10]) was 30 µM. The EC50 (BVDV (strain NADL); [11]) was > 3 µM, the EC50 (BVDV (strain NADL); [12]) was > 3 µM and the CC50 (in vitro [6]) was 5 µM. The CC50 at 4 days ([7]; HepG2 cells (human hepatoma), HepG2 cells, read-out: CC50 HepG2) was 150 µM, the CC50 at 4 days ([7]; Huh7 cells (human hepatoma), Huh7 cells, read-out: CC50 Huh7) was 25 µM and the EC50 at 4 days [7, 13] was 20 µM. The EC90 (BVDV; [14]) was > 200 µM.
In the case of `CC1(O)[C@@H](O)[C@@H](CO)O[C@H]1n1cnc2c(N)ncnc21` (stereo partly drawn) [β-D-2′-CH3-riboA, 2′-C-methylriboadenine], the EC50 (HIV-1) is reported as > 6.6 µM, the EC50 [8, 15] is reported as 0.1 µM and the “Conc. for 6-log Reduction” value (BVDV (NADL strain)) is reported as 9 μM. The “Yield Reduction 6 log10 reduction (μM)” value (BVDV (NADL strain)) was 9 μM, the EC90 (BVDV (NADL strain); [9]) was < 2 µM and the EC50 (VSV) was > 100 µM. The IC50 ([2]; Homo sapiens, CFU-GM) was > 100 µM, the IC50 ([3]; Bone marrow cell) was > 100 µM and the CC50 (in vitro [4]) was 75 µM. The CC50 (in vitro [4]; African green monkey) was 22 µM, the CC50 (in vitro [4]; hamster) was 22 µM and the CC50 (in vitro [4]; human) was 6.6 µM. It also gave an EC50 [5] of 5 µM, an EC50 (YFV-17D; [10]) of 0.2 µM and an EC50 (BVDV (strain NADL); [11]) of 2 µM. The EC50 (BVDV (strain NADL); [12]) was 2 µM, the CC50 (in vitro [6]) was 20 µM and the EC50 at 4 days [7, 13] was 50 µM. For the same compound, the EC90 (BVDV; Bovine viral diarrhea virus isolates and strains, 72 h, concentration to obtain 90% virus suppression, 3 days, read-out: EC90) was < 3 µM and the EC90 (BVDV; [14]) was < 3 µM.
With `C[C@@]1(O)[C@H](O)[C@@H](CO)O[C@H]1n1ccc(N)nc1=O` [β-D-2′-CH3-riboC] the EC50 ([8]; read-out: BVDV EC50) was 3.7 µM, the “Conc. for 6-log Reduction” value (BVDV (NADL strain)) was 20 μM and the EC90 (BVDV (NADL strain)) was < 4 µM. For the same compound, the “Yield Reduction 6 log10 reduction (μM)” value (BVDV (NADL strain)) was 20 μM, the CC50 (MDBK cells) was 100 µM and the IC50 ([2]; human bone marrow colony formation, 14 to 18 days) was > 10 µM. For the same compound, the IC50 [3] was > 10 µM, the EC50 (YFV-17D; Table 12, reduce the plaque number by 50%, YFV-BHK, read-out: YFV EC50) was 70 µM and the EC50 (BVDV (strain NADL); read-out: Cell Protection (EC50)) was 2 µM. For the same compound, the EC50 (BVDV (strain NADL); read-out: EC50) was 2 µM, the CC50 (various cell systems) was > 100 µM and the CC50 (various cell systems; read-out: YFV CC50, Table 12, reduce the viability of cells by 50%, YFV-BHK system) was > 100 µM. The lactate (HepG2 cells; Conc. 1 μM) was 2.52 mg/10^6 cell, the “lactate % of Control” value (HepG2 cells; Conc. 1 μM) was 115.3% and the lactate (HepG2 cells; Conc. 10 μM) was 2.36 mg/10^6 cell. For the same compound, the “lactate % of Control” value (HepG2 cells; Conc. 10 μM) was 107.9%, the lactate (HepG2 cells; Conc. 50 μM) was 2.26 mg/10^6 cell and the “lactate % of Control” value (HepG2 cells; Conc. 50 μM) was 103.4%. The lactate (HepG2 cells; Conc. 100 μM) was 2.21 mg/10^6 cell, the “lactate % of Control” value (HepG2 cells; Conc. 100 μM) was 101.2% and the EC90 (BVDV; read-out: EC90) was < 9 µM. The EC90 (BVDV; read-out: Plaque Reduction (EC90)) was < 9 µM.
In the case of `C[C@@]1(n2cnc3c(N)ncnc32)O[C@H](CO)[C@H](O)C1O` (stereo partly drawn) [β-D-1′-CH3-riboA, 1′-C-methylriboadenine], the EC50 (HIV-1) is reported as > 18 µM, the EC50 [8, 15] is reported as 10 µM and the EC50 (VSV) is reported as > 100 µM. For the same compound, the CC50 (in vitro [4]) was > 100 µM, the CC50 (in vitro [4]; African green monkey) was > 100 µM and the CC50 (in vitro [4]; hamster) was 200 µM. It also gave a CC50 (in vitro [4]; human) of 18 µM, an EC50 [5] of 51 µM and an EC50 (YFV-17D; [10]) of 7 µM.
